pIC50: −log10 of the molar value.
Tests used:
SARS-CoV-2 3CLpro = SARS-CoV-2 3CLpro (Severe acute respiratory syndrome coronavirus 2, UniProt P0DTD1); assay: biochemical; type: biochemical; conditions: for inhibition activity against SARS-CoV-2 3CLpro in vitro (in words): FRET assay, 30 tested compounds
SARS-CoV-2 = assay: microbe, parasite or virus in culture; type: cell-based; conditions: Severe acute respiratory syndrome coronavirus 2, Vero C1008, read-out: IC50 of inhibition of cell infection
MERS-CoV 3CLpro = MERS-CoV 3CLpro (Middle East respiratory syndrome-related coronavirus, UniProt K9N7C7); assay: biochemical
Chain of MERS-CoV 3CLpro (K9N7C7 3248-3553 limits assumed): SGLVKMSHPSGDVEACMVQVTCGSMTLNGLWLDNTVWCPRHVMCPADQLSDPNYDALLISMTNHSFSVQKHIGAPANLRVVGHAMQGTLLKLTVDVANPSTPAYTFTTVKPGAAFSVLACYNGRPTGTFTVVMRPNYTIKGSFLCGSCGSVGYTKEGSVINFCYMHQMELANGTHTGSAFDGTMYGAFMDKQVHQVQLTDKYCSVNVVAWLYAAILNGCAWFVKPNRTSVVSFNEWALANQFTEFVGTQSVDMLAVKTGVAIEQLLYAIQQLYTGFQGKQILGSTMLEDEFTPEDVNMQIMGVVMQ

SARS-CoV-2 protease = SARS-CoV-2 protease (Severe acute respiratory syndrome coronavirus 2, UniProt P0DTD1); conditions: Fu et al., Nature Comm. 2020; cited from earlier work
SARS-CoV-2 virus = conditions: Vero E6 cells; Choy K. et al, Antivir. Res. 2020; read-out: IC50 antiviral effect; cited from earlier work

Row | Structure (SMILES) | inhibition activity against SARS-CoV-2 3CLpro in vitro (in words) (SARS-CoV-2 3CLpro) | pIC50 (SARS-CoV-2) | pIC50 (MERS-CoV 3CLpro) | pIC50 (SARS-CoV-2 3CLpro) | also measured
1 | CCOC(=O)/C=C/[C@H](C[C@@H]1CCNC1=O)NC(=O)[C@@H](CC(=O)[C@@H](NC(=O)c1cc(C)on1)C(C)C)Cc1ccc(F)cc1 | not active in vitro |  |  |  | 
2 | CCN(CC)CCCC(C)Nc1ccnc2cc(Cl)ccc12 (racemic) [chloroquine, (RS)-N′-(7-chloroquinolin-4-yl)-N,N-diethyl-pentane-1,4-diamine] |  | ~4.92 |  |  | cytotoxicity / cell viability (in words) (VeroE6 cells): significant cytotoxicity
3 | O=C(/C=C/c1ccc(O)c(O)c1)OC1CC(OC(=O)/C=C/c2ccc(O)c(O)c2)(C(=O)O)CC(O)C1O (stereo not drawn) [CYNARIN, 1,3-bis[[(E)-3-(3,4-dihydroxyphenyl)prop-2-enoyl]oxy]-4,5-dihydroxycyclohexane-1-carboxylic acid] | active in vitro |  | 4.78 | 5.74 | 
4 | CN(C)[C@@H]1C(O)=C(C(N)=O)C(=O)[C@@]2(O)C(O)=C3C(=O)c4c(O)c(NC(=O)CN5CCCC5)cc(F)c4C[C@H]3C[C@@H]12 [ERAVACYCLINE diHcl, (4S,4aS,5aR,12aS)-4-(Dimethylamido)-7-fluoro-3,10,12,12a-tetrahydroxy-1,11-dioxo-9-[(1-pyrrolidinylacetyl)amino]-1,4,4a,5,5a,6,11,12a-octahydro-2-tetracenecarboxamide] | active in vitro | 4.51 | 4.79 | 5.78 | cytotoxicity / cell viability (in words) (VeroE6 cells): without affecting cell viability
5 | COc1cccc(OCCCN)c1-c1cc(Nc2cnc(C#N)cn2)n[nH]1 [PREXASERTIB diHCl, 5-((5-(2-(3-Aminopropoxy)-6-methoxyphenyl)-1H-pyrazol-3-yl)amino)-2-pyrazinecarbonitrile] | active in vitro |  | 4.91 | 5.70 | 
6 | CC(C)C[C@H](NC(=O)[C@H](CCc1ccccc1)NC(=O)CN1CCOCC1)C(=O)N[C@@H](Cc1ccccc1)C(=O)N[C@@H](CC(C)C)C(=O)[C@@]1(C)CO1 [carfilzomib] |  |  |  |  | inhibition of SARS-CoV-2 protease (in words) (SARS-CoV-2 protease): failed to inhibit
7 | CC[C@H]1CN2CCc3cc(OC)c(OC)cc3[C@@H]2C[C@@H]1C[C@H]1NCCc2cc(OC)c(OC)cc21 [emetine] |  |  |  |  | pIC50 (SARS-CoV-2 virus): 6.34
8 | COC(=O)C[C@](O)(CCCC(C)(C)O)C(=O)O[C@@H]1C(OC)=C[C@]23CCCN2CCc2cc4c(cc2[C@H]13)OCO4 [homorringtonine, 1-((1S,3aR,14bS)-2-Methoxy-1,5,6,8,9,14b-hexahydro-4H-cyclopenta(a)(1,3)dioxolo(4,5-h)pyrrolo(2,1-b)(3)benzazepin-1-yl) 4-methyl (2R)-2-hydroxy-2-(4-hydroxy-4-methylpentyl)butanedioate] |  |  |  |  | pIC50 (SARS-CoV-2 virus): 5.59
9 | CCC(CC)COC(=O)[C@H](C)N[P@](=O)(OC[C@H]1O[C@@](C#N)(c2ccc3c(N)ncnn23)[C@H](O)[C@@H]1O)Oc1ccccc1 [remdesivir, (2S)-2-{(2R,3S,4R,5R)-[5-(4-Aminopyrrolo[2,1-f][1,2,4]triazin-7-yl)-5-cyano-3,4-dihydroxy-tetrahydro-furan-2-ylmethoxy]phenoxy-(S)-phosphorylamino}propionic acid 2-ethyl-butyl ester] |  | ~4.92 |  |  | 
